Test results as given in ChEMBL document CHEMBL4715750, “Synthesis and in vitro, ex-vivo and in vivo activity of hybrid compounds linking a potent ROS and RNS scavenger activity with diverse substrates addressed to pass across the blood-brain barrier” (Eur J Med Chem, 2016).
The source made the active and inactive calls. The calls are words filed in the database; no cut-off is given here.

Experiments:
[1] = Antioxidant activity assessed as DPPH radical scavenging activity incubated for 60 mins in absence of light; format: functional
[2] = Permeability of the compound at pH 7.4 by PAMPA-BBB assay; format: ADME; details: read-out: permeability
SH-SY5Y [3] = experiment: Antioxidant activity in human SH-SY5Y cells assessed as inhibition of H2O2-induced DCFH oxidation measured after 1 hr by DCFH-DA dye based fluorescence assay; format: functional, cell-based
[4] = Cytotoxicity against human SH-SY5Y cells assessed as cell viability at 100 uM measured after 2 hrs by MTT assay relative to control; format: cell-based; details: read-out: Activity
[5] = Cytotoxicity against human SH-SY5Y cells assessed as cell viability at 50 uM measured after 2 hrs by MTT assay relative to control; format: cell-based; details: read-out: Activity
[6] = Cytotoxicity against human SH-SY5Y cells assessed as cell viability at 25 uM measured after 2 hrs by MTT assay relative to control; format: cell-based; details: read-out: Activity
[7] = Cytotoxicity against human SH-SY5Y cells assessed as cell viability at 12.5 uM measured after 2 hrs by MTT assay relative to control; format: cell-based; details: read-out: Activity
[8] = Cytotoxicity against human SH-SY5Y cells assessed as cell viability at 6.3 uM measured after 2 hrs by MTT assay relative to control; format: cell-based; details: read-out: Activity
[9] = Cytotoxicity against human SH-SY5Y cells assessed as cell viability at 3.1 uM measured after 2 hrs by MTT assay relative to control; format: cell-based; details: read-out: Activity
[10] = Cytotoxicity against human SH-SY5Y cells assessed as cell viability at 1.6 uM measured after 2 hrs by MTT assay relative to control; format: cell-based; details: read-out: Activity
[11] = Cytotoxicity against human SH-SY5Y cells assessed as cell viability at 0.8 uM measured after 2 hrs by MTT assay relative to control; format: cell-based; details: read-out: Activity
[12] = Cytotoxicity against human SH-SY5Y cells assessed as cell viability at 100 uM measured after 24 hrs by MTT assay relative to control; format: cell-based; details: read-out: Activity
[13] = Cytotoxicity against human SH-SY5Y cells assessed as cell viability at 50 uM measured after 24 hrs by MTT assay relative to control; format: cell-based; details: read-out: Activity
[14] = Cytotoxicity against human SH-SY5Y cells assessed as cell viability at 25 uM measured after 24 hrs by MTT assay relative to control; format: cell-based; details: read-out: Activity
[15] = Cytotoxicity against human SH-SY5Y cells assessed as cell viability at 12.5 uM measured after 24 hrs by MTT assay relative to control; format: cell-based; details: read-out: Activity
[16] = Cytotoxicity against human SH-SY5Y cells assessed as cell viability at 6.3 uM measured after 24 hrs by MTT assay relative to control; format: cell-based; details: read-out: Activity
[17] = Cytotoxicity against human SH-SY5Y cells assessed as cell viability at 3.1 uM measured after 24 hrs by MTT assay relative to control; format: cell-based; details: read-out: Activity
[18] = Cytotoxicity against human SH-SY5Y cells assessed as cell viability at 1.6 uM measured after 24 hrs by MTT assay relative to control; format: cell-based; details: read-out: Activity
[19] = Cytotoxicity against human SH-SY5Y cells assessed as cell viability at 0.8 uM measured after 24 hrs by MTT assay relative to control; format: cell-based; details: read-out: Activity
SH-SY5Y [20] = experiment: Cytoprotective activity against DMSO-induced toxicity in human SH-SY5Y cells; format: functional, cell-based
[21] = Drug concentration in Sprague-Dawley rat plasma at 0.2 mmol/Kg, ip measured after 1 hr by HPLC based fluorimetric analysis; format: ADME, organism-based
[22] = Drug concentration in Sprague-Dawley rat brain at 0.2 mmol/Kg, ip measured after 1 hr by HPLC based fluorimetric analysis; format: ADME, organism-based; details: in vivo
[23] = Retention time in Sprague-Dawley rat brain by HPLC based fluorimetric analysis; format: ADME, tissue-based

Row | Compound | IC50 [1] [µM] | Papp [2] [×10⁻⁶ cm/s] | Activity (SH-SY5Y [3]) | IC50 (SH-SY5Y [3]) [µM] | viability at 2 h, 100 µM [4] [%] | viability at 2 h, 50 µM [5] [%] | viability at 2 h, 25 µM [6] [%] | viability at 2 h, 12.5 µM [7] [%] | viability at 2 h, 6.3 µM [8] [%] | viability at 2 h, 3.1 µM [9] [%] | viability at 2 h, 1.6 µM [10] [%] | viability at 2 h, 0.8 µM [11] [%] | viability at 24 h, 100 µM [12] [%] | viability at 24 h, 50 µM [13] [%] | viability at 24 h, 25 µM [14] [%] | viability at 24 h, 12.5 µM [15] [%] | viability at 24 h, 6.3 µM [16] [%] | viability at 24 h, 3.1 µM [17] [%] | viability at 24 h, 1.6 µM [18] [%] | viability at 24 h, 0.8 µM [19] [%] | also measured
1 | COc1cc2c(cc1O)CCC(C)(CC(=O)N[C@@H](Cc1ccccc1)C(=O)O)O2 (stereo not given in full) | 14.9 | 0.49 | Dose-dependent effect | 44.5 | 72.2 | 100 | 100 | 100 | 100 | 100 | 100 | 99 | 59.1 | 89.5 | 81.1 | 82.3 | 87.5 | 93 | 100 | 100 | Activity (SH-SY5Y [20]): Active; concentration at 1 h [21]: 0.9 µM; Ct [22]: 0 nmol/g
2 | COc1cc2c(cc1O)CCC(C)(CC(=O)N[C@@H](Cc1ccc(O)cc1)C(=O)O)O2 (stereo not given in full) | 19.6 | – | Dose-dependent effect | 50 | 75.8 | 95.7 | 95.5 | 92.5 | 99.7 | 100 | 94.5 | 92.2 | 67.5 | 78.6 | 82.7 | 81.6 | 83.3 | 89.9 | 89.5 | 79.7 | concentration at 1 h [21]: 7 µM
3 | COc1cc2c(cc1O)CCC(C)(CCNC(C)=O)O2 (stereo not given) | 14.3 | 0.52 | Dose-dependent effect | 50.3 | 66.6 | 81.2 | 89.2 | 84.8 | 79.4 | 82.3 | 100 | 91.3 | 57.9 | 66.5 | 76.2 | 83.5 | 87.8 | 90.7 | 78.7 | 89 | concentration at 1 h [21]: 3 µM; Ct [22]: 2.3 nmol/g; Retention_time [23]: 4 min
4 | COc1cc2c(cc1O)CCC(C)(CC(=O)N[C@@H](Cc1c[nH]c3ccccc13)C(=O)O)O2 (stereo not given in full) | 15.5 | 1.18 | Dose-dependent effect | > 200 | 95.4 | 95.2 | 100 | 100 | 100 | 97.9 | 97.2 | 94.8 | 65.9 | 92.8 | 90 | 91.2 | 94.9 | 100 | 96 | 94.6 | Activity (SH-SY5Y [20]): Active
5 | COc1cc2c(cc1O)CCC(C)(CCNC(=O)C[C@H]1OC(O)[C@H](O)[C@@H](O)[C@@H]1O)O2 (stereo not given in full) | 13.1 | – | Dose-dependent effect | 35.6 | 77.6 | 99.6 | 100 | 100 | 100 | 93.3 | 95.3 | 88.9 | 56.6 | 86.6 | 87.9 | 90.6 | 87.2 | 88.1 | 96.7 | 96.1 | Activity (SH-SY5Y [20]): Active; concentration at 1 h [21]: 26 µM; Ct [22]: 3.1 nmol/g; Retention_time [23]: 2 min
6 | COc1cc2c(cc1O)CCC(C)(CC(N)C(=O)O)O2 (stereo not given) | 14.1 | 0.04 | Dose-dependent effect | > 200 | 87.8 | 100 | 100 | 100 | 100 | 100 | 100 | 100 | 60.1 | 85.7 | 88.5 | 100 | 100 | 100 | 100 | 82.7 | Activity (SH-SY5Y [20]): Active; concentration at 1 h [21]: 52.3 µM; Ct [22]: 15.8 nmol/g; Retention_time [23]: 7 min
7 | COc1cc2c(cc1O)CCC(C)(CC(N)=O)O2 (stereo not given) | 10.5 | 0.28 | Dose-dependent effect | 71.2 | 54.7 | 74.9 | 83.6 | 85.8 | 80.8 | 84.8 | 96.1 | 88.2 | 51.4 | 99.2 | 100 | 100 | 100 | 100 | 100 | 96.7 | Activity (SH-SY5Y [20]): Active
